Where a name gives a salt, the structure may show the parent alone.
Each compound was assayed against T1, phosphorylated VEGF-R2Δ50 (FLVK-P) (Homo sapiens, UniProt P35968, DEL940-989/E990V) (assay: VEGF-R2 coupled spectrophotometric (FLVK-P) assay). Details: Table 1; at 50, concentration unit not printed (head nM).
T1 construct: VEGF-R2Δ50 contains residues 806-939 and 990-1171; made in house; host or cells: baculovirus/insect cells
T1 sequence (P35968 with tags, fused parts or gaps DEL940-989/E990V limits assumed): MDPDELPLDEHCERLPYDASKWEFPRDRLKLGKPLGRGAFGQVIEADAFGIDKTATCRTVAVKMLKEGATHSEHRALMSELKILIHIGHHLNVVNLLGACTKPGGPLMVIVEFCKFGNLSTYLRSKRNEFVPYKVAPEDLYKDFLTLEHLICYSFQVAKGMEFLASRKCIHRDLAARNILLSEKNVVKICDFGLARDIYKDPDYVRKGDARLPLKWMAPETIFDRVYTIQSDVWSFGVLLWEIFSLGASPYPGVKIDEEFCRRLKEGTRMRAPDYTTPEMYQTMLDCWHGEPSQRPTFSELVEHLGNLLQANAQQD
Type: biochemical
Source text: VEGF-R2 Construct for Assay: This construct determines the ability of a test compound to inhibit tyrosine kinase activity. A construct (VEGF-R2Δ50) of the cytosolic domain of human vascular endothelial growth factor receptor 2 (VEGF-R2) lacking the 50 central residues of the 68 residues of the kinase insert domain was expressed in a baculovirus/insect cell system. Of the 1356 residues of full-length VEGF-R2, VEGF-R2Δ50 contains residues 806-939 and 990-1171, and also one point mutation (E990V) within the kinase insert domain relative to wild-type VEGF-R2. Autophosphorylation of the purified construct was performed by incubation of the enzyme at a concentration of 4 μM in the presence of 3 mM ATP and 40 mM MgCl2 in 100 mM Hepes, pH 7.5, containing 5% glycerol and 5 mM DTT, at 4° C. for 2 h. […] See Parast et al., Biochemistry, 37, 16788-16801 (1998).
Coupled Spectrophotometric (FLVK-P) Assay
The production of ADP from ATP that accompanies phosphoryl transfer was coupled to oxidation of NADH using phosphoenolpyruvate (PEP) and a system having pyruvate kinase (PK) and lactic dehydrogenase (LDH). The oxidation of NADH was monitored by following the decrease of absorbance at 340 nm (e340=6.22 cm^−1 mM^−1) using a Beckman DU 650 spectrophotometer. Assay conditions for phosphorylated VEGF-R2Δ50 (indicated as FLVK-P in the tables below) were the following: 1 mM PEP; 250 μM NADH; 50 units of LDH/mL; 20 units of PK/mL; 5 mM DTT; 5.1 mM poly(E4Y1); 1 mM ATP; and 25 mM MgCl2 in 200 mM Hepes, pH 7.5. Assay conditions for unphosphorylated VEGF-R2Δ50 (indicated as FLVK in the tables) were the following: 1 mM PEP; 250 μM NADH; 50 units of LDH/mL; 20 units of PK/mL; 5 mM DTT; 20 mM poly(E4Y1); 3 mM ATP; and 60 mM MgCl2 and 2 mM MnCl2 in 200 mM Hepes, pH 7.5. Assays were initiated with 5 to 40 nM of enzyme. Ki values were determined by measuring enzyme activity in the presence of varying concentrations of test compounds. The data were analyzed using Enzyme Kinetic and Kaleidagraph software.
With `Nc1nc(Nc2cccnc2)sc1-c1nc(-c2cccc(NC(=O)c3cccc(Cl)c3)c2)no1` [D(52), 3-[3-(3-Chlorobenzamido)phenyl]-5-[2-(3-aminopyridyl)-4-amino-5-thiazolyl]-1,2,4-oxadiazole] the “FLVK-P % inhibition @ 50” value was 27% @.
With `CC(=O)Nc1nc(N)c(-c2nc(-c3cccc(NC(=O)c4cccc(Cl)c4)c3)no2)s1` [F(4), N-{3-[5-(2-Acetylamino-4-amino-thiazol-5-yl)-[1,2,4]oxadiazol-3-yl]-phenyl}-3-chloro-benzamide] the “FLVK-P % inhibition @ 50” value was 33% @.
In the case of `Nc1nc(NC(=O)c2cccs2)sc1-c1nc(-c2cccc(NC(=O)c3cccc(Cl)c3)c2)no1` [F(5), Thiophene-2-carboxylic acid (4-amino-5-{3-[3-(3-chloro-benzoylamino)-phenyl]-[1,2,4]oxadiazol-5-yl}-thiazol-2-yl)-amide], the “FLVK-P % inhibition @ 50” value is reported as 31% @.
With `CCC(=O)Nc1nc(N)c(-c2nc(-c3cccc(NC(=O)c4cccc(Cl)c4)c3)no2)s1` [F(6), N-{3-[5-(4-Amino-2-propionylamino-thiazol-5-yl)-[1,2,4]oxadiazol-3-yl]-phenyl}-3-chloro-benzamide] the “FLVK-P % inhibition @ 50” value was 34% @.

Same assay, conditions: Table 1; spectrophotometric assay
For `COc1cc(Nc2nc(N)c(-c3nc(-c4cccc(NC(=O)c5cc(Cl)ccn5)c4)cs3)s2)cc(OC)c1OC` [D(11), 4-Chloro-pyridine-2-carboxylic acid {3-[4′-amino-2′-(3,4,5-trimethoxy-phenylamino)-[2,5′]bithiazolyl-4-yl]-phenyl}-amide], the Ki was 0.0019 µM.
With `COc1cc(Nc2nc(N)c(-c3nc(-c4cccc(NC(=O)CCc5ccccc5)c4)cs3)s2)cc(OC)c1OC` [D(16), N-{3-[4′-Amino-2′-(3,4,5-trimethoxy-phenylamino)-[2,5′]bithiazolyl-4-yl]-phenyl}-3-phenyl-propionamide] the Ki was 0.0118 µM.
Compound `COc1cc(Nc2nc(N)c(-c3nc(-c4cccc(NC(=O)c5ccc(F)cc5)c4)cs3)s2)cc(OC)c1OC` [D(28), N-{3-[4′-Amino-2′-(3,4,5-trimethoxy-phenylamino)-[2,5′]bithiazolyl-4-yl]-phenyl}-4-fluoro-benzamide] has a Ki of 0.006 µM.
In the case of `COc1cc(Nc2nc(N)c(-c3nc(-c4cccc(NC(=O)c5ccc(C)c(C)c5)c4)cs3)s2)cc(OC)c1OC` [D(31), N-{3-[4′-Amino-2′-(3,4,5-trimethoxy-phenylamino)-[2,5′]bithiazolyl-4-yl]-phenyl}-3,4-dimethyl-benzamide], the Ki is reported as 0.0048 µM.
With `COc1cc(Nc2nc(N)c(-c3nc(-c4cccc(NC(=O)c5cnc(C)s5)c4)cs3)s2)cc(OC)c1OC` [D(53), 2-Methyl-thiazole-5-carboxylic acid {3-[4′-amino-2′-(3,4,5-trimethoxy-phenylamino)-[2,5′]bithiazolyl-4-yl]-phenyl}-amide] the Ki was 0.0025 µM.
In the case of `COc1cc(Nc2nc(N)c(-c3nc(-c4cccc(NC(=O)c5cccc(Cl)n5)c4)cs3)s2)cc(OC)c1OC` [D(54), 6-Chloro-pyridine-2-carboxylic acid {3-[4′-amino-2′-(3,4,5-trimethoxy-phenylamino)-[2,5′]bithiazolyl-4-yl]-phenyl}-amide], the Ki is reported as 0.0063 µM.
For `COc1cc(Nc2nc(N)c(-c3nc(-c4cccc(NC(=O)c5ccnc(Cl)c5)c4)cs3)s2)cc(OC)c1OC` [D(55), N-{3-[4′-Amino-2′-(3,4,5-trimethoxy-phenylamino)-[2,5′]bithiazolyl-4 yl]-phenyl}-2-chloro-isonicotinamide], the Ki was 0.0063 µM.
For `COc1cc(Nc2nc(N)c(-c3nc(-c4cccc(NC(=O)c5cc(C)cc(C)c5)c4)no3)s2)cc(OC)c1OC` [D(56), N-(3-{5-[4-Amino-2-(3,4,5-trimethoxy-phenylamino)-thiazol-5-yl]-[1,2,4]oxadiazol-3-yl}-phenyl)-3,5-dimethyl-benzamide trifluoroacetate salt], the Ki was 0.00081 µM.
`COc1cc(Nc2nc(N)c(-c3nc(-c4cccc(NC(=O)c5ccccc5C)c4)no3)s2)cc(OC)c1OC` [D(57), N-(3-{5-[4-Amino-2-(3,4,5-trimethoxy-phenylamino)-thiazol-5-yl]-[1,2,4]oxadiazol-3-yl}-phenyl)-2-methyl-benzamide trifluoroacetate salt] was tested, and the Ki was 0.018 µM.
`COC(=O)Nc1nc(N)c(-c2nc(-c3cccc(NC(=O)c4ccc(Cl)s4)c3)cs2)s1` [F(3), (4′-Amino-4-{3-[(5-chloro-thiophene-2-carbonyl)-amino]-phenyl}-[2,5′]bithiazolyl-2′-yl)-carbamic acid methyl ester] was tested, and the Ki was 0.08 µM.
With `Nc1nc(NC(=O)c2ccccc2)sc1-c1nc(-c2cccc(NC(=O)c3cccc(Cl)c3)c2)no1` [F(7), N-{3-[5-(4-amino-2-benzoylamino-thiazol-5-yl)-[1,2,4]oxadiazol-3-yl]-phenyl}-3-chloro-benzamide] the Ki was 0.114 µM.
Work on `CNC(=O)Nc1nc(N)c(-c2nc(-c3cccc(NC(=O)c4cccc(C)c4)c3)no2)s1` [F(8), N-(3-[5-[4-Amino-2-(3-methyl-ureido)-thiazol-5-yl]-[1,2,4]oxadiazol-3-yl}-phenyl)-3-methyl-benzamide] yielded a Ki of 0.0019 µM.

Same assay, conditions: Table 2; at 100 μM
Work on `COc1cc(Nc2nc(N)c(C3=NC(c4ccc5ccccc5c4)CO3)s2)cc(OC)c1OC` (centres unmarked) [I(20)] yielded an inhibition at 100 µM of 46%.

Same assay, conditions: Table 2; spectrophotometric assay
`COc1cc(Nc2nc(N)c(C3=N[C@@H](Cc4ccccc4)CO3)s2)cc(OC)c1OC` [I(1), S-5-(4-Benzyl-4,5-dihydro-oxazol-2-yl)-N^2-(3,4,5-trimethoxyl-pheny)-thiazole-2,4-diamine] was tested, and the Ki was greater than 100 µM.
In the case of `COc1cc(Nc2nc(N)c(C3=NC(c4cccc(O)c4)CO3)s2)cc(OC)c1OC` (centres unmarked) [I(9), S-3-{2-[4-Amino-2-(3,4,5-trimethoxy-phenylamino)-thiazol-5-yl]-4,5-dihydro-oxazol-4-yl}-phenol], the Ki is reported as 0.083 µM.
With `COc1cc(Nc2nc(N)c(C3=NC(c4ccc(O)cc4)CO3)s2)cc(OC)c1OC` (centres unmarked) [I(11), S-4-{2-[4-Amino-2-(3,4,5-trimethoxy-phenylamino)-thiazol-5-yl]-4,5-dihydro-oxazol-4-yl}-phenol] the Ki was 0.53 µM.

Same assay, conditions: Table 3; at 1 μM
Compound `N#Cc1cccc(Nc2nc(N)c(-c3nc(-c4cccc(NC(=O)c5cccc(Cl)c5)c4)no3)s2)c1` [D(78)] has an inhibition at 1 µM of 9%.

The compounds below were run on human umbilical vein endothelial cells (HUVEC) (assay: HUVEC proliferation assay). Details: Homo sapiens, HUVEC, Table 1.
Type: cell-based
Procedure, shortened: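 Readout was MTT dye reduction (A595) after 72 h of stimulation with VEGF at 6 ng/ml final. Compound, in 0.1% DMSO final, was added 1 h before VEGF to HUVEC starved 24 h in 1% FBS. % inhibition was scaled between VEGF-alone and unstimulated wells; IC50 was fitted from triplicate dose curves.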
`CNC(=O)Nc1nc(N)c(-c2nc(-c3cccc(NC(=O)c4cccc(C)c4)c3)no2)s1` [F(8), N-(3-[5-[4-Amino-2-(3-methyl-ureido)-thiazol-5-yl]-[1,2,4]oxadiazol-3-yl}-phenyl)-3-methyl-benzamide] gave an IC50 of 0.022 µM.

Same assay, conditions: Homo sapiens, HUVEC, Table 2
In the case of `COc1cc(Nc2nc(N)c(C3=N[C@@H](Cc4ccccc4)CO3)s2)cc(OC)c1OC` [I(1), S-5-(4-Benzyl-4,5-dihydro-oxazol-2-yl)-N^2-(3,4,5-trimethoxyl-pheny)-thiazole-2,4-diamine], the IC50 is reported as 61 µM.
